{"source": "patent US11192849B2", "about": "“Compounds, compositions, and methods for modulating ferroptosis and treating excitotoxic disorders” (THE TRUSTEES OF COLUMBIA UNIVERSITY IN THE CITY OF NEW YORK, priority 2013, dated 2021)", "key": {"[1]": {"system": "HT-1080 cells", "assay": "Mitochondrial ROS (MitoSOX) in HT-1080 cells", "format": "cell-based, human", "settings": "rotenone 250 nM, 3 hr, Fer-1 1 μM", "method": "200,000 HT-1080 cells were seeded into 6-well dishes (Corning). The next day, cells were treated with +/−rotenone +/−ferrostatin-1 for 3 hours (for MitoSOX experiments) or +/−STS +/−ferrostatin-1 for 4 hours (for 10-N-nonylacridine orange [NAO] experiments), harvested by trypsinization and analyzed as follows. For the analysis of mitochondrial ROS, cells were incubated with 5 μM MitoSOX (Molecular Probes/Invitrogen) in HBSS for 10 minutes in the dark at 37° C. […] MitoSOX data were collected in the FL2 channel and NAO data was collected in the FL1 channel. Data are from three independent biological replicates of each experiment. Data were analyzed by one-way ANOVA with Bonferroni's post-hoc test."}, "[2]": {"system": "HT-1080 cells", "assay": "Mitochondrial cardiolipin peroxidation (10-N-nonylacridine orange) in HT-1080 cells", "format": "cell-based, human", "settings": "STS 100 nM, NAO probe", "experimental": "200,000 HT-1080 cells were seeded into 6-well dishes (Corning). […] For the analysis of mitochondrial ROS, cells were incubated with 5 μM MitoSOX (Molecular Probes/Invitrogen) in HBSS for 10 minutes in the dark at 37° C. For the analysis of mitochondrial cardiolipin peroxidation, cells were incubated with NAO dissolved to a final concentration of 25 ng/mL in HBSS for 10 minutes in the dark at 37° C. Cells were then washed once in HBSS and measurements were subsequently acquired using an flow cytometer (BD/Accuri C6) equipped with a 488 nm laser for excitation of fluorophores. MitoSOX data were collected in the FL2 channel and NAO data was collected in the FL1 channel. Data are from three independent biological replicates of each experiment. Data were analyzed by one-way ANOVA with Bonferroni's post-hoc test."}, "[3]": {"assay": "In vitro stability study in mouse plasma", "format": "in vitro ADME", "experimental": "The assay was conducted by incubating 1 μM of test compounds with Mouse Plasma (Strain […]) for a series of incubation times (0, 15, 30, 60, 120 minutes) at various temperatures (wet ice, room temperature, or 37° C.) with 5% CO2 and shaking (130 rpm). At each time point, the samples were quenched with 200 μL of stop solution containing an internal standard and kept on ice. The samples were analysed by LC-MS/MS."}, "[4]": {"system": "HT-1080 cells", "assay": "HT-1080 cell proliferation (Vi-Cell)", "format": "cell-based, human", "settings": "over 48 hours", "experimental": "Cell viability was typically assessed in 384-well format by Alamar Blue (Invitrogen) fluorescence (ex/em 530/590) measured on a Victor3 platereader (Perkin Elmer, Waltham, Mass.). In some experiments, Trypan Blue dye exclusion counting was performed using an automated cell counter (ViCell, Beckman-Coulter Inc., Brea, Calif.). Cell viability in test conditions is reported as a percentage relative to the negative control treatment."}, "[5]": {"system": "rat organotypic hippocampal slice culture (OHSC)", "assay": "Glutamate excitotoxic injury in organotypic hippocampal slice cultures (PI uptake)", "format": "cell-based", "settings": "5 mM L-glutamate 3 hours; Fer-1 2 μM, CPX 5 μM, MK-801 10 μM; 24 hours", "experimental": "OHSCs were cultured as previously described (Morrison et al., 2002) with approval from Columbia University's Institutional Animal Care and Use Committee (IACUC). Briefly, Sprague Dawley rat pups (P8-P10) were rapidly decapitated, and the hippocampus placed in ice-cold Gey's balanced salt solution (Sigma). 400 μm thick sections were cut using a Mcllwain tissue chopper and immediately plated on Millicell cell culture inserts (Millipore, Billerica, Mass.) in Neurobasal (Invitrogen) media supplemented with B27 (1×, Invitrogen), GlutaMAX (1 mM, Invitrogen), and D-glucose (4.5 mg/mL, Sigma) at 37° C. and 5% CO2. After 2 days in vitro (DIV), the media was changed to medium containing serum comprised of 50% DMEM (Sigma), 25% heat-inactivated horse serum (Sigma), 25% Hank's balanced salt solution (Sigma), GlutaMAX (1 mM, Invitrogen), and D-glucose (4.5 mg/mL, Sigma). Medium was changed every 2-3 days.\nAfter 10-14 DIV, OBSCs were exposed to an excitotoxic injury consisting of a 3 hour exposure to 5 mM L-glutamate in SFM (Morrison et al., 2002). […] After the 3 hour exposure, the cultures were placed in fresh serum free media (SFM) containing 75% DMEM, 25% Hank's balanced salt solution, GlutaMAX (1 mM), D-glucose (4.5 mg/mL) until cell death was quantified at 24 hours. […]\nQuantification of cell death has been described previously (Cater et al., 2007; Morrison et al., 2002). […] Percentage cell death was expressed as the number of pixels in the ROI above a threshold in the PI fluorescent image divided by the total number of pixels in the ROI.\nOHSCs were treated with a lethal excitotoxic stimulus (5 mM L-glutamate, 3 hours) that mimics the consequences of stroke and neurodegenerative disease (Morrison et al., 2002; Sundstrom et al., 2005) (FIG. 5A). […] The effects of these compound treatments on propidium iodide (PI) uptake were analyzed, as an indicator of cell death, 24 hours following the end of glutamate treatment, in 3 defined regions of the OHSCs: the dentate gyrus (DG), the CA1 and the CA3 fields of the hippocampus."}, "[6]": {"system": "HT-1080 cells", "assay": "Cytosolic and lipid ROS production (H2DCFDA, C11-BODIPY flow cytometry) in HT-1080 cells", "format": "cell-based, human", "settings": "erastin (10 μM)", "experimental": "The day before the experiment, 200,000 cells/well were seeded in 6-well dishes (Corning Inc., Corning, N.Y.). The day of the experiment, cells were treated with test compounds for the indicated times, then harvested by trypsinization, resuspended in 500 μL Hanks Balanced Salt Solution (HBSS, Gibco, Invitrogen Corp., Carlsbad, Calif.) containing either H2DCFDA (25 μM), C11-BODIPY(581/591) (2 μM) or MitoSOX (5 μM) (all from Molecular Probes, Invitrogen) and incubated for 10 minutes at 37° C. in a tissue culture incubator. Cells were then resuspended in 500 μL of fresh HBSS, strained through a […] cell strainer (BD Falcon, BD Biosciences, San Jose, Calif.), and analyzed using a flow cytometer (FACSCalibur or Accuri C6, BD Biosciences), which was equipped with 488-nm laser for excitation. Data was collected from the FL1 (H2DCFDA, C11-BODIPY) or FL2 channel (MitoSOX). A minimum of 10,000 cells were analyzed per condition."}}}
{"smiles": "CCOC(=O)c1ccc(NC2CCCCC2)c(N)c1", "note": "[SRS8-28 (Fer-1), ethyl 3-amino-4-(cyclohexylamino)benzoate]", "values": [{"measurement": "accumulation of mitochondrial superoxide in response to rotenone", "setting": "[1]", "result": "did not prevent"}, {"measurement": "mitochondrial cardiolipin oxidation in response to staurosporine", "setting": "[2]", "result": "did not prevent"}, {"measurement": "mouse plasma stability", "setting": "[3]", "result": "poor plasma stability"}, {"measurement": "HT-1080 cell proliferation", "setting": "[4]", "result": "did not inhibit ERK phosphorylation or arrest the proliferation of HT-1080 cells"}, {"measurement": "glutamate-induced cell death (PI uptake) in DG, CA1, CA3", "setting": "[5]", "result": "attenuated significantly"}, {"measurement": "effect of inhibitor on erastin-induced ROS accumulation", "setting": "[6]", "result": "prevent erastin-induced accumulation of cytosolic and lipid ROS"}]}
